In article PMC11648822, “Lactam Truncation Yields a Dihydroquinazolinone Scaffold with Potent Antimalarial Activity that Targets PfATP4” (Chemmedchem, 2024):

Molecular target: T1, Dd2‐PfATP4^WT (Plasmodium falciparum, UniProt A0A143ZZK9, G1128R)
T1 construct: We prepared membranes from Dd2‐Polδ‐PfATP4^G358S parasites (generated previously[22]) and Dd2‐Polδ parental parasites; endogenous in cells; host or cells: P. falciparum Dd2-Polδ trophozoites (membrane preparation)
T1 sequence (A0A143ZZK9 1-1264 G1128R): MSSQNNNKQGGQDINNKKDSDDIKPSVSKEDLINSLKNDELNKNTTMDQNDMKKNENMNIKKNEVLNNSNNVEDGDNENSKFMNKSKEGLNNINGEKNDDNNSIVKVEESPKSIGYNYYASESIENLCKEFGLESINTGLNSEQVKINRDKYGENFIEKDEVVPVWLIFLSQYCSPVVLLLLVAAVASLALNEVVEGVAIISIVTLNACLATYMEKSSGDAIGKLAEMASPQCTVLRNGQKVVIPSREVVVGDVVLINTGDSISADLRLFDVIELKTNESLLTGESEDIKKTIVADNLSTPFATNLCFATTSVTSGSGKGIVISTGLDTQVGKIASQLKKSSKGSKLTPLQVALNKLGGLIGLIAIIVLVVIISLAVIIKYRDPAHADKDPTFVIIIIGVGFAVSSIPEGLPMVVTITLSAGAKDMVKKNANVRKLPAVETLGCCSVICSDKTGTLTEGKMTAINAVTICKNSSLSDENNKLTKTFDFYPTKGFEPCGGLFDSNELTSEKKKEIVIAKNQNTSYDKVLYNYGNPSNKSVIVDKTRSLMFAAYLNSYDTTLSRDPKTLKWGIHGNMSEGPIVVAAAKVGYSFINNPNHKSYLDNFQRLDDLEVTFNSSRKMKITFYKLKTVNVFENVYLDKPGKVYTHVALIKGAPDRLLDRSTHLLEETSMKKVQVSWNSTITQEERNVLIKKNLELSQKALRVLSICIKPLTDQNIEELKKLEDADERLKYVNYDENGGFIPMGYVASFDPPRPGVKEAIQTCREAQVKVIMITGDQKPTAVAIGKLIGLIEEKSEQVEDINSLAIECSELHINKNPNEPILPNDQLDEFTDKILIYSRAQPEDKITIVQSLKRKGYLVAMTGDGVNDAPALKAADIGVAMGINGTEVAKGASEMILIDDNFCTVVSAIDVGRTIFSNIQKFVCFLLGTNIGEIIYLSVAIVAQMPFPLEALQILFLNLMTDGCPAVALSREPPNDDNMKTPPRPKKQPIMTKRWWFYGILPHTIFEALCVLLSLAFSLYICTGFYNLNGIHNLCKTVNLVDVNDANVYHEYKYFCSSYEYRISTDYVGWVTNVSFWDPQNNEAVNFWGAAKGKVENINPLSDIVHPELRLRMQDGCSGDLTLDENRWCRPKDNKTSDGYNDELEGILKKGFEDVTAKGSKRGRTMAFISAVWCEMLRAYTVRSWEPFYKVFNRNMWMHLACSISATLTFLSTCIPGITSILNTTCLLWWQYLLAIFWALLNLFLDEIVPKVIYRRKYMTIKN
Test: PfATP4 Na+ assay (membrane ATPase), Dd2-Polδ parental membranes
Assay type: biochemical, P. falciparum
Conditions: membranes from Dd2-Polδ parental parasites
Method: Figure 4 Dihydroquinazolinone analogs 14 and 36 (WJM062) inhibit Na^+‐ATPase activity in membranes prepared from isolated P. falciparum parasites, consistent with them being PfATP4 inhibitors. (A) The effects of dihydroquinazolinone compounds (2 μM), dihydroartemisinin (DHA; 50 nM; negative control) and 0.2 % v/v DMSO (solvent‐only control) on membrane ATPase activity under high‐[Na^+] conditions (152 mM Na^+) and low‐[Na^+] conditions (2 mM Na^+; stemming from the addition of 1 mM Na2ATP) in the presence and absence of the PfATP4 inhibitor cipargamin (50 nM). The membranes were prepared from isolated trophozoite‐stage 3D7 parasites. The Pi produced is expressed as a percentage of that measured in the 152 mM Na^+ Control. The data are from four independent experiments performed with different membrane preparations; the symbols show the data from individual experiments and the bars show the mean (+SEM). In individual experiments, the Pi produced in the 152 mM Na^+ Control varied from 66 to 96 nmol per mg (total) protein per min. A repeated measures ANOVA with a post hoc Tukey test was used to compare the (pre‐normalised) data for different compounds and conditions. […] In B−D, the Pi production measured in the low‐[Na^+] (2 mM) condition was subtracted from that measured in high‐[Na^+] […] The PfATP4‐associated ATPase activity is expressed as a percentage of that obtained for the high‐[Na^+] […]

SMILES | EC50
COc1cc(F)c2c(c1)NC(C)(C(=O)Nc1cncc(Cl)c1)N(C)C2=O (centres unmarked) [Compound 36, N‐(5‐Chloropyridin‐3‐yl)‐5‐fluoro‐7‐methoxy‐2,3‐dimethyl‐4‐oxo‐1,2,3,4‐tetrahydroquinazoline‐2‐carboxamide] | 7.8 nM
CN1C(=O)c2ccc(Cl)cc2NC1(C)C(=O)Nc1cncc(Cl)c1 (centres unmarked) [Compound 14, 7‐Chloro‐N‐(5‐chloro‐3‐pyridyl)‐2,3‐dimethyl‐4‐oxo‐1H‐quinazoline‐2‐carboxamide] | 8.4 nM
